Results taken from PubChem BioAssay (NCI).
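How tested: cells in 96-well plates exposed to compound for 48 hours at five concentrations. GI50: concentration for 50% inhibition of growth. TGI is the concentration that stops growth completely.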

How the values were obtained:
Experiment in all cases: inhibition of tumour cell growth, NCI panel, 48 h
[1] = system: MDA-MB-468 breast
[2] = system: SN12C renal
[3] = system: EKVX NSCLC
[4] = system: RXF 393 renal
[5] = system: NCI-H460 lung
[6] = system: SNB-19 CNS
[7] = system: UO-31 renal
[8] = system: DU-145 prostate
[9] = system: TK-10 renal
[10] = system: UACC-257 melanoma
[11] = system: HOP-62 NSCLC
[12] = system: HCC-2998 colon
[13] = system: RPMI-8226 leukemia
[14] = system: SK-OV-3 ovarian
[15] = system: SK-MEL-5 melanoma
[16] = system: KM12 colon
[17] = system: SW-620 colon
[18] = system: HL-60(TB) leukemia
[19] = system: HCT-15 colon
[20] = system: SK-MEL-2 melanoma
[21] = system: SF-268 CNS
[22] = system: PC-3 prostate
[23] = system: OVCAR-3 ovarian
[24] = system: MCF7 breast
[25] = system: A549 NSCLC
[26] = system: A498 renal
[27] = system: NCI-H23 lung
[28] = system: SR leukemia
[29] = system: ACHN renal
[30] = system: CCRF-CEM leukemia
[31] = system: HCT-116 colon
[32] = system: NCI-H522 lung
[33] = system: MALME-3M melanoma
[34] = system: SF-539 CNS
[35] = system: 786-0 renal
[36] = system: MDA-MB-435
[37] = system: OVCAR-5 ovarian
[38] = system: SF-295 CNS
[39] = system: HOP-92 NSCLC
[40] = system: SK-MEL-28 melanoma
[41] = system: NCI-H226 lung
[42] = system: BT-549 breast
[43] = system: OVCAR-4 ovarian
[44] = system: UACC-62 melanoma
[45] = system: LOX IMVI melanoma
[46] = system: MDA-MB-231 breast
[47] = system: COLO 205 colon
[48] = system: T-47D breast
[49] = system: IGROV1 ovarian
[50] = system: OVCAR-8 ovarian
[51] = system: HT29 colon
[52] = system: U251 CNS
[53] = system: CAKI-1 renal
[54] = system: K-562 leukemia

Structure (SMILES): NC(=O)C(=CNc1nc(-c2ccc(Cl)c(Cl)c2)cs1)C(N)=O
- GI50 [1]: > 100 µM
- TGI [1]: > 100 µM

Structure (SMILES): CC(=O)Oc1ccc(Nc2c3ccccc3nc3ccccc23)cc1
- GI50 [1]: 0.913 µM
- TGI [1]: 3.01 µM

Structure (SMILES): Cc1ccc(Nc2nc(N)c(C(=O)c3ccc(C#N)cc3)s2)cc1
- GI50 [1]: 0.229 µM
- TGI [1]: 0.663 µM

Structure (SMILES): O=C(Nc1ccc(Cl)cc1F)c1cc(Br)ccc1O
- GI50 [1]: 1.13 µM
- TGI [1]: 4.45 µM

Structure (SMILES): C#CC(=O)Nc1cccc(Nc2nc3c(c(NCc4ccccc4)n2)CCCC3)c1
- GI50 [1]: 0.168 µM
- TGI [1]: 0.573 µM

Structure (SMILES): CCN(CC)CCOc1ccc(/C(=C(\C)c2ccc(F)c(OC)c2)c2ccc(Cl)cc2)cc1
- GI50 [1]: 1.91 µM
- TGI [1]: 4.23 µM

Structure (SMILES): CC(=O)O[C@@H]1C[C@]2(C(C)C)O[C@@]1(C)[C@@H]1CCC(C)=C1[C@@H]2OC(=O)/C=C/c1ccccc1
- GI50 [1]: 24.2 µM
- TGI [1]: > 100 µM

Structure (SMILES): C#C[C@]1(O)CC[C@H]2[C@@H]3CC=C4c5sc(Nc6ccccc6)nc5CC[C@]4(C)[C@H]3CC[C@@]21C
- GI50 [1]: 1.71 µM
- TGI [1]: 4.25 µM

Structure (SMILES): COc1ccc(CNc2c3ccccc3nc3ccccc23)cc1OC
- GI50 [1]: 1.58 µM
- TGI [1]: 4.14 µM

Structure (SMILES): Nc1nc(Br)nc2c1ncn2C1CC(O)C(CO)O1 (stereo not given)
- GI50 [1]: > 100 µM
- TGI [1]: > 100 µM

Structure (SMILES): Cc1cc(NC(=O)c2ccc(C)c(Nc3nccc(-c4cccnc4)n3)c2)cc(-n2cnc(C)c2)c1
- GI50 [1]: 1.22 µM
- TGI [1]: 3.27 µM

Structure (SMILES): COc1cc(/C=C/C(=O)c2cnn(-c3cc(=O)[nH]c4ccc(Br)cc34)c2C)cc(OC)c1OC
- GI50 [2]: 2.94 µM
- TGI [2]: 11.6 µM
- GI50 [3]: 2.96 µM
- TGI [3]: 13.4 µM
- GI50 [4]: 1.87 µM
- TGI [4]: 3.95 µM
- GI50 [5]: 2.39 µM
- TGI [5]: 5.37 µM
- GI50 [6]: 3.25 µM
- TGI [6]: 12.6 µM
- GI50 [7]: 2.83 µM
- TGI [7]: 12.5 µM
- GI50 [8]: 3.61 µM
- TGI [8]: 30.5 µM
- GI50 [9]: 3.8 µM
- TGI [9]: 24.1 µM
- GI50 [10]: 7.78 µM
- TGI [10]: 48.5 µM
- GI50 [11]: 3.55 µM
- TGI [11]: 17.2 µM
- GI50 [12]: 3.3 µM
- TGI [12]: 11 µM
- GI50 [13]: 2.84 µM
- TGI [13]: > 100 µM
- GI50 [14]: 4.34 µM
- TGI [14]: > 100 µM
- GI50 [15]: 3.05 µM
- TGI [15]: 10.7 µM
- GI50 [16]: 3.48 µM
- TGI [16]: 14.6 µM
- GI50 [17]: 3.09 µM
- TGI [17]: 8.61 µM
- GI50 [18]: 3 µM
- TGI [18]: > 100 µM
- GI50 [19]: 1.71 µM
- TGI [19]: 3.92 µM
- GI50 [20]: 3.52 µM
- TGI [20]: 12.2 µM
- GI50 [21]: 3.76 µM
- TGI [21]: > 100 µM
- GI50 [22]: 5.19 µM
- TGI [22]: > 100 µM
- GI50 [23]: 3.45 µM
- TGI [23]: 12.1 µM
- GI50 [24]: 2.16 µM
- TGI [24]: 9.06 µM
- GI50 [25]: 3.52 µM
- TGI [25]: > 100 µM
- GI50 [26]: 28.5 µM
- TGI [26]: 51.6 µM
- GI50 [27]: 1.92 µM
- TGI [27]: 4.33 µM
- GI50 [28]: 2.44 µM
- TGI [28]: > 100 µM
- GI50 [29]: 1.84 µM
- TGI [29]: 4.31 µM
- GI50 [30]: 2.88 µM
- TGI [30]: > 100 µM
- GI50 [31]: 3.27 µM
- TGI [31]: 11.5 µM
- GI50 [32]: 2.26 µM
- TGI [32]: 5.98 µM
- GI50 [1]: 1.93 µM
- TGI [1]: 5.43 µM
- GI50 [33]: 4.66 µM
- TGI [33]: 22.3 µM
- GI50 [34]: 2.03 µM
- TGI [34]: 4.54 µM
- GI50 [35]: 3.63 µM
- TGI [35]: 14.3 µM
- GI50 [36]: 2.72 µM
- TGI [36]: 8.65 µM
- GI50 [37]: 3.09 µM
- TGI [37]: 10.7 µM
- GI50 [38]: 2.4 µM
- TGI [38]: 7.75 µM
- GI50 [39]: 8.2 µM
- TGI [39]: > 100 µM
- GI50 [40]: 2.84 µM
- TGI [40]: 8.75 µM
- GI50 [41]: 2.49 µM
- TGI [41]: 7.38 µM
- GI50 [42]: 2.29 µM
- TGI [42]: 6.28 µM
- GI50 [43]: 5.2 µM
- TGI [43]: > 100 µM
- GI50 [44]: 1.79 µM
- TGI [44]: 4 µM
- GI50 [45]: 1.49 µM
- TGI [45]: 3.35 µM
- GI50 [46]: 3.11 µM
- TGI [46]: 13.7 µM
- GI50 [47]: 3.35 µM
- TGI [47]: 10.9 µM
- GI50 [48]: 3.06 µM
- TGI [48]: 18.8 µM
- GI50 [49]: 2.23 µM
- TGI [49]: 6.33 µM
- GI50 [50]: 3.48 µM
- TGI [50]: > 100 µM
- GI50 [51]: 2.2 µM
- TGI [51]: 5.07 µM
- GI50 [52]: 2.54 µM
- TGI [52]: 7.37 µM
- GI50 [53]: 4.11 µM
- TGI [53]: 31.3 µM
- GI50 [54]: 2.86 µM
- TGI [54]: > 100 µM
